The results in this text go back to patent US6875760B2 (Novo Nordisk A/S, priority 1999, dated 2005).

In this test the target is T1, human glucagon receptor (Homo sapiens, UniProt P47871).
T1 construct: expressed in transfected cells; host or cells: BHK (baby hamster kidney) cells
As to the kind of experiment: Glucagon Binding Assay (III). The following applies: BHK cell membranes, WGA SPA beads, 125I-glucagon. The procedure: BHK (baby hamster kidney cell line) cells were transfected with the human glucagon receptor and a membrane preparation of the cells was prepared.
All steps in the membrane preparation were kept on ice or performed at 4° C. BHK cells were harvested and centrifuged. […] The pellet was resuspended in homogenisation buffer, homogenised 2×10 sec (Polytron) and additional homogenisation buffer was added. […] (Polytron).
The glucagon binding assay was carried out in opti plates (Polystyrene Microplates, Packard). […] Finally 50 μL WGA beads containing 1 mg beads were transferred to the well. The assay was incubated for 4 hours on a shaker and then settled for 8-48 hours. The opti plates were counted in a Topcounter. Non-specific binding was determined with 500 nM of glucagon.

Setting [1] is: read-out: Glu Bd Assay (III) IC50.

Like-named read-outs stand apart in the source and are kept apart here.

T1 sequence (P47871 26-477): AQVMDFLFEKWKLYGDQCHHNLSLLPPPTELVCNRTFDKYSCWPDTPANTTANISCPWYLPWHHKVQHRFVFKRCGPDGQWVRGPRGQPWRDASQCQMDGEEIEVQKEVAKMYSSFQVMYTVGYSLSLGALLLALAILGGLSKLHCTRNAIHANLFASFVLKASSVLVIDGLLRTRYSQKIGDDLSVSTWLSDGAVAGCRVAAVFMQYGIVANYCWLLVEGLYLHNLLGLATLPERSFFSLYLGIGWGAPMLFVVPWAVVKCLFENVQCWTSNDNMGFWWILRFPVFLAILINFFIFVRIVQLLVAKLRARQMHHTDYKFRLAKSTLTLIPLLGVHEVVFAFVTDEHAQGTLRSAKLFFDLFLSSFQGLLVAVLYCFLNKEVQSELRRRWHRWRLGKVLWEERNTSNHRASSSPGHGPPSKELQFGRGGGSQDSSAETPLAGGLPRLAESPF

As usually defined, the IC50 is the point on the concentration scale where inhibition reaches its midpoint. Turning to `CCCC1CCC(N(Cc2ccc(C(=O)NCCC(=O)O)cc2)C(=O)Nc2ccc(OC(F)(F)F)cc2)CC1` (stereo not shown) [Example 75, 3-{4-[1-(4-Propylcyclohexyl)-3-(4-trifluoromethoxyphenyl)ureidomethyl]benzoylamino}propionic acid], under setting [1], the IC50 was 177 nM.

Take `CCC[C@H]1CC[C@H](N(Cc2ccc(C(=O)NCCC(=O)O)cc2)C(=O)Nc2ccc(OC(F)(F)F)cc2)CC1` [Example 76, 3-{4-[1-(4-trans-Propylcyclohexyl)-3-(4-trifluoromethoxyphenyl)ureidomethyl]benzoylamino}propionic acid]: the IC50 under setting [1] amounted to 135 nM.

Take `CCC[C@H]1CC[C@@H](N(Cc2ccc(C(=O)NCCC(=O)O)cc2)C(=O)Nc2ccc(OC(F)(F)F)cc2)CC1` [Example 77, 3-{4-[1-(4-cis-Propylcyclohexyl)-3-(4-trifluoromethoxyphenyl)ureidomethyl]benzoylamino}propionic acid]: the IC50 under setting [1] came out at 294 nM.

Regarding `CCC(C)(C)[C@H]1CC[C@H](N(Cc2ccc(C(=O)NCCC(=O)O)cc2)C(=O)Nc2ccc(OC(F)(F)F)cc2)CC1` [Example 78, 3-{4-[1-[4-trans-(1,1-Dimethylpropyl)cyclohexyl]-3-(4-trifluoromethoxyphenyl)ureidomethyl]benzoylamino}propionic acid], the IC50 under setting [1] stood at 49 nM.

For `O=C(O)CCNC(=O)c1ccc(CN(C(=O)Nc2ccc(OC(F)(F)F)cc2)C2CCC3CCCCC3C2)cc1` (stereo not shown) [Example 79, 3-{4-[1-(Decahydronaphthalen-2-yl)-3-(4-trifluoromethoxyphenyl)ureidomethyl]benzoylamino}propionic acid], under setting [1], the IC50 was 200 nM.

Take `O=C(O)CCNC(=O)c1ccc(CN(C(=O)Nc2ccc(OC(F)(F)F)cc2)[C@H]2CC[C@@H](c3ccccc3)CC2)cc1` [Example 80, 3-{4-[1-(4-cis-Phenylcyclohexyl)-3-(4-trifluoromethoxyphenyl)ureidomethyl]benzoylamino}propionic acid]: under setting [1], the IC50 was determined as 229 nM.

`O=C(O)CCNC(=O)c1ccc(CN(C(=O)Nc2ccc(OC(F)(F)F)cc2)[C@H]2CC[C@H](c3ccccc3)CC2)cc1` [Example 81, 3-{4-[1-(4-trans-Phenylcyclohexane)-3-(4-trifluoromethoxyphenyl)ureidomethyl]benzoylamino}propionic acid]: the IC50 under setting [1] is 143 nM.

For the molecule `CC(C)C1CCC(N(Cc2ccc(C(=O)NCCC(=O)O)cc2)C(=O)Nc2ccc(OC(F)(F)F)cc2)CC1` (stereo not shown) [Example 82, 3-{4-[1-(4-Isopropylcyclohexyl)-3-(4-trifluoromethoxyphenyl)ureidomethyl]benzoylamino}propionic acid], the IC50 under setting [1] was determined as 59 nM.

Regarding `CCC1CCC(N(Cc2ccc(C(=O)NCCC(=O)O)cc2)C(=O)Nc2ccc(OC(F)(F)F)cc2)CC1` (stereo not shown) [Example 83, 3-{4-[1-(4-Ethylcyclohexyl)-3-(4-trifluoromethoxyphenyl)ureidomethyl]benzoylamino}propionic acid], the IC50 under setting [1] worked out at 203 nM.

Consider `CCCCOC(=O)c1ccc(NC(=O)N(Cc2ccc(C(=O)NCCC(=O)O)cc2)C2CCC(C(C)C)CC2)cc1` (stereo not shown) [Example 84, 4-[3-[4-(2-Carboxyethylcarbamoyl)benzyl]-3-(4-isopropylcyclohexyl)ureido]benzoic acid butyl ester], for which, under setting [1], the IC50 came to 261 nM.

For `CCC1CCC(N(Cc2ccc(C(=O)NCCC(=O)O)cc2)C(=O)Nc2cc(C(F)(F)F)cc(C(F)(F)F)c2)C1` (stereo not shown) [Example 85, 3-{4-[3-(3,5-Bis(trifluoromethyl)phenyl)-1-(3-ethylcyclopentyl)ureidomethyl]benzoylamino}propionic acid], the IC50 under setting [1] amounted to 494 nM.

In the case of `O=C(O)CCNC(=O)c1ccc(CN(C(=O)Nc2cc(C(F)(F)F)cc(C(F)(F)F)c2)C2CCc3ccccc3C2)cc1` (stereo not shown) [Example 86, 3-{4-[3-(3,5-Bis(trifluoromethyl)phenyl)-1-(1,2,3,4-tetrahydronaphthalen-2-yl)ureidomethyl]benzoylamino}propionic acid], the IC50 under setting [1] was 423 nM.

`CCC(C)(C)C1CCC(N(Cc2ccc(C(=O)NCCC(=O)O)cc2)C(=O)Nc2ccc(OC(F)(F)F)cc2)CC1` (stereo not shown) [Example 87, 3-{4-[1-[4-(1,1-Dimethylpropyl)cyclohexyl]-3-(4-trifluoromethoxyphenyl)ureidomethyl]benzoylamino}propionic acid]: the IC50 under setting [1] stood at 43 nM.

In the case of `CCCC1(CCC)CCC(N(Cc2ccc(C(=O)NCCC(=O)O)cc2)C(=O)Nc2ccc(OC(F)(F)F)cc2)CC1` [Example 88, 3-{4-[1-(4,4-Dipropylcyclohexyl)-3-(4-trifluoromethoxyphenyl)ureidomethyl]benzoylamino}propionic acid], the IC50 under setting [1] stood at 137 nM.

For `O=C(O)CCNC(=O)c1ccc(CN(C(=O)Nc2ccc(OC(F)(F)F)cc2)C2CCC3(CC2)OCCO3)cc1` [Example 89, 3-{4-[1-(1,4-Dioxaspiro[4.5]dec-8-yl)-3-(4-trifluoromethoxyphenyl)ureidomethyl]benzoylamino}propionic acid], the IC50 under setting [1] worked out at 1210 nM.

With `CC(C)(C)C1CCC(N(Cc2ccc(C(=O)N(CCC(=O)O)CC3CC3)cc2)C(=O)Nc2ccc(OC(F)(F)F)cc2)CC1` (stereo not shown) [Example 90, 3-({4-[1-(4-tert-Butylcyclohexyl)-3-(4-trifluoromethoxyphenyl)ureidomethyl]benzoyl}cyclopropylmethyl)aminopropionic acid], the IC50 under setting [1] turned out to be 4200 nM.

Take `CCN(CCC(=O)O)C(=O)c1ccc(CN(C(=O)Nc2ccc(OC(F)(F)F)cc2)C2CCC(C(C)(C)C)CC2)cc1` (stereo not shown) [Example 91, 3-({4-[1-(4-tert-Butylcyclohexyl)-3-(4-trifluoromethoxyphenyl)ureidomethyl]benzoyl}ethylamino)propionic acid]: under setting [1], the IC50 amounted to 2800 nM.

`CC(C)(C)[C@H]1CC[C@@H](N(Cc2ccc(C(=O)NCCC(=O)O)cc2)C(=O)Nc2ccc(OC(F)(F)F)cc2)CC1` [Example 93, 3-{4-[1-(cis-4-tert-Butylcyclohexyl)-3-(4-trifluoromethoxy-phenyl)ureidomethyl]benzoylamino}propionic acid]: the IC50 (Glu Bd Assay (III) IC50 (nM)) was 47 nM.

For the molecule `CC(C)(C)[C@H]1CC[C@H](N(Cc2ccc(C(=O)NCC(=O)O)cc2)C(=O)Nc2ccc(OC(F)(F)F)cc2)CC1` [Example 95, 3-{4-[1-(trans-4-tert-Butylcyclohexyl)-3-(4-trifluoromethoxyphenyl)ureidomethyl]benzoylamino}acetic acid], where the note is “Glu Bd Assay (III) IC50 (nM)”, the IC50 was found to be 1700 nM.

For the molecule `CCCCC(CC)CN(Cc1ccc(C(=O)NCCC(=O)O)cc1)C(=O)Nc1ccc(OC(F)(F)F)cc1` (stereo not shown) [Example 96, 3-{4-[1-(2-Ethylhexyl)-3-(4-trifluoromethoxyphenyl)ureidomethyl]benzoylamino}propionic acid], the IC50 under setting [1] stood at 137 nM.

As to `O=C(O)CCNC(=O)c1ccc(CN(C(=O)Nc2ccc(OC(F)(F)F)cc2)[C@H]2CC[C@H](OC(=O)Nc3ccc(OC(F)(F)F)cc3)CC2)cc1` [Example 97, 3-{4-[1-(trans-4-(4-Trifluoromethoxyphenylcarbamoyloxy)cyclohexyl)-3-(4-trifluoromethoxyphenyl)ureidomethyl]benzoylamino}propionic acid], the IC50 under setting [1] was 1650 nM.

For the molecule `COC(=O)CCNC(=O)c1ccc(CN(C(=O)Nc2ccc(OC(F)(F)F)cc2)[C@H]2CC[C@H](C(C)(C)C)CC2)cc1` [Example 98, 3-{4-[1-(trans-4-tert-Butylcyclohexyl)-3-(4-trifluoromethoxyphenyl)ureidomethyl]benzoylamino}propionic acid methyl ester], the IC50 under setting [1] amounted to 83 nM.

Turning to `CC(C)(C)C1CCC(N(Cc2ccc(C(=O)NCCC(=O)O)cc2)C(=O)Nc2ccc(C#N)cc2)CC1` (stereo not shown) [Example 99, 3-{4-[1-(4-tert-Butylcyclohexyl)-3-(4-cyanophenyl)ureidomethyl]benzoylamino}propionic acid], the IC50 (Glu Bd Assay (III) IC50 (nM)) was found to be 1050 nM.

As for `CC(C)(C)[C@H]1CC[C@H](N(Cc2ccc(C(=O)NCCC(=O)O)cc2)C(=O)Nc2cc(C(F)(F)F)cc(C(F)(F)F)c2)CC1` [Example 100, 3-{4-[3-(3,5-Bis-trifluoromethylphenyl)-1-(trans-4-tert-butylcyclohexyl)ureidomethyl]benzoylamino}propionic acid], the IC50 under setting [1] is 50 nM.

Turning to `CC(C)(C)[C@H]1CC[C@H](N(Cc2ccc(C(=O)NCCC(=O)O)cc2)C(=O)Nc2cc(C(F)(F)F)cc(C(F)(F)F)c2)CC1` [Example 237, 3-{4-[3-(3,5-Bis-trifluoromethylphenyl)-1-(trans-4-tert-butylcyclohexyl)ureidomethyl]benzoylamino}propionic acid], the IC50 (Glu Bd Assay (III) IC50 (nM)) was found to be 56 nM.

`CC(C)(C)[C@H]1CC[C@H](N(Cc2ccc(C(=O)NCCC(=O)O)cc2)C(=O)Nc2cc(Cl)c(Cl)c(Cl)c2)CC1` [Example 238, 3-{4-[1-(trans-4-tert-Butylcyclohexyl)-3-(3,4,5-trichlorophenyl)ureidomethyl]benzoylamino}propionic acid]: the IC50 under setting [1] worked out at 103 nM.

Turning to `CCCCNS(=O)(=O)c1ccc(NC(=O)N(Cc2ccc(C(=O)NCCC(=O)O)cc2)[C@H]2CC[C@H](C(C)(C)C)CC2)cc1` [Example 239, 3-{4-[1-(trans-4-tert-Butylcyclohexyl)-3-(4-butylsulfamoylphenyl)ureidomethyl]benzoylamino}propionic acid], the IC50 under setting [1] was found to be 1890 nM.

The molecule `CCN(CC)C(=O)c1ccc(NC(=O)N(Cc2ccc(C(=O)NCCC(=O)O)cc2)[C@H]2CC[C@H](C(C)(C)C)CC2)cc1` [Example 240, 3-{4-[1-(trans-4-tert-Butylcyclohexyl)-3-(4-diethylcarbamoylphenyl)ureidomethyl]benzoylamino}propionic acid] displayed an IC50 (Glu Bd Assay (III) IC50 (nM)) of 2430 nM.
